Test results reported in US20250205362A1, “LIPID NANOPARTICLES” (NATIONAL UNIVERSITY CORPORATION HOKKAIDO UNIVERSITY, priority 2022, published 2025).

How the values were obtained:
factor 7 (F7) = conditions: knockdown of factor 7 (F7) in mouse liver; cited from earlier work
[1] = Encapsulation rate of lipid nanoparticles (Ribogreen); assay type: physicochemical
Experimental: The encapsulation rate of the lipid nanoparticles was calculated by measuring the amount of encapsulated nucleic acid (the amount of ssODN in the case of RNP-ssODN) using an RNA intercalator Ribogreen (manufactured by Life Technologies).

TTR gene = experiment: Measurement of TTR-KO activity (serum TTR protein, ELISA); assay type: in vivo, mouse; conditions: FIG. 5; TTR-RNP-ssODN-loaded LNP; mouse serum 7 days after administration
Experimental: Lipid nanoparticles encapsulating Cas9/sgTTR-RNP (Cas9/sgTTR-RNP-loaded lipid nanoparticles) were intravenously injected to BALB/c mice (female, 4 weeks old) at the indicated doses. One week after intravenous injection, the mice were euthanized, blood was collected, and serum was isolated by centrifugation. The TTR protein concentration in the serum was determined using a commercially available ELISA kit (Prealbumin ELISA Kit (mouse), Aviva Systems Biology) according to the manufacturer's protocol. The serum TTR protein concentration of untreated mice was taken as 100%, and the relative value (%) of the serum TTR protein concentration of mice administered with each lipid nanoparticle was taken as the knockout activity (TTR-KO activity) of the lipid nanoparticle.

BALB/c mice = experiment: Measurement of Fluc activity in tissues after iv Fluc mRNA-loaded lipid nanoparticles; assay type: in vivo, mouse; conditions: for Fluc activity (gene transfer ability) in liver and spleen: Example 1, FIG. 1, Fluc mRNA-loaded LNP 50/10/40/1.5, Balb/c mice iv 0.01 mg mRNA/kg, 6 hours
Experimental: First, lipid nanoparticles encapsulating Fluc mRNA (Fluc mRNA-loaded lipid nanoparticles) were intravenously injected into BALB/c mice (female, 4 weeks old) at a dose of 0.01 mg mRNA/kg body weight. Six hours after intravenous injection, the mice were euthanized, and each tissue was collected, frozen in liquid nitrogen, and stored at −80° C. The tissues were homogenized in passive lysis buffer (Promega) using a bead cell disrupter (Micro Smash MS-100R, TOMY Seiko). Tissue debris was removed by centrifugation and the supernatant was collected. Fluc activity in the supernatant was measured using a luciferase assay system (E1500, Promega) according to the manufacturer's protocol. Luminescence was measured using a luminometer (Luminescencer-PSN, ATTO). The protein concentration was determined using a commercially available measurement kit (BCA Protein Assay Kit, Pierce). Fluc activity was expressed as relative light units (RLU) per mg of protein.

[2] = Average particle diameter, PdI and zeta potential of lipid nanoparticles (dynamic light scattering); assay type: physicochemical
Experimental: The mean particle diameter (number average value), ζ-mean particle diameter, and polydispersity index (PdI) of the lipid nanoparticles in PBS(−) (pH 7.4), as well as the zeta potential in 10 mM HEPES buffer (pH 7.4), were measured using an analyzing device, Zetasizer Nano ZS ZEN3600 (Malvern), which utilizes dynamic light scattering.

[3] = Fluc mRNA-loaded LNP, cationic lipid/DSPC/cholesterol/PEG-DMG 50/10/40/1.5 mol%, Table 5
[4] = TTR-RNP-ssODN-loaded LNP (ssODN-TTR_3-40%), cationic lipid/DSPC/cholesterol/PEG-DMG 50/10/40/3.5 mol%, Table 8
[5] = Fluc mRNA-loaded LNP, comparison CL4F11-ζ-2, SM, ALC, MC3, Table 21
[6] = Fluc mRNA-loaded LNP, lipid/DSPC/cholesterol/PEG-DMG 50/10/40/1.5 (MC3: 50/10/38.5/1.5) mol%, Table 15
[7] = TTR-RNP-ssODN-loaded LNP, comparison CL4F11-ζ-2, SM, ALC, MC3, Table 20
[8] = Fluc mRNA-loaded LNP, CL4F11-e-3/neutral lipid (DSPC or DOPE)/cholesterol/PEG-DMG 50/10/40/0.75 mol%

| Compound | Encapsulation rate [1, 3] [%] | Encapsulation rate [1, 4] [%] | Number-average particle diameter [2, 3] [nm] | PdI [2, 3] | ζ-average [2, 3] [nm] | ζ-potential [2, 3] [mV] | Number-average particle diameter [2, 4] [nm] | PdI [2, 4] | ζ-average [2, 4] [nm] | ζ-potential [2, 4] [mV] | ED50 in F7 knockdown (factor 7 (F7)) [mg siRNA/kg] | serum TTR activity / gene knockout versus CL4F6 (TTR gene) | Fluc activity (gene transfer ability) in liver and spleen (BALB/c mice) | other results |
| --- | --- | --- | --- | --- | --- | --- | --- | --- | --- | --- | --- | --- | --- | --- |
| CCCCCC/C=C\COC(=O)CCCCCCCC(CCCCCCCC(=O)OC/C=C\CCCCCC)OC(=O)CCCN(C)C [L319] |  |  |  |  |  |  |  |  |  |  | 0.01 |  |  |  |
| CCCCC/C=C\C/C=C\CCCCCCCCC(CCCCCCCC/C=C\C/C=C\CCCCC)OC(=O)CCCN(C)C [MC3, DLin-MC3-DMA, reference compound] |  |  |  |  |  |  |  |  |  |  | 0.005 |  |  | Encapsulation rate [1, 5]: 87.1%; Encapsulation rate [1, 6]: 79.3%; Encapsulation rate [1, 7]: 78.7%; Number-average particle diameter [2, 5]: 71.0 nm; PdI [2, 5]: 0.190; ζ-average [2, 5]: 112.4 nm; ζ-potential [2, 5]: −2.17 mV; Number-average particle diameter [2, 6]: 48.0 nm; PdI [2, 6]: 0.198; ζ-average [2, 6]: 68.6 nm; ζ-potential [2, 6]: 2.19 mV; Number-average particle diameter [2, 7]: 82.7 nm; PdI [2, 7]: 0.213; ζ-average [2, 7]: 155.9 nm; ζ-potential [2, 7]: 0.52 mV |
| CCCCCCCC/C=C\CCCCCCCC(=O)OC[C@H](COP(=O)(O)OCCN)OC(=O)CCCCCCC/C=C\CCCCCCCC [DOPE, 1,2-dioleoyl-sn-glycero-3-phosphoethanolamine] |  |  |  |  |  |  |  |  |  |  |  |  |  | Encapsulation rate [1, 8]: 89.1%; Fluc activity in liver and spleen (BALB/c mice; Example 2, FIG. 3, CL4F11-e-3 LNP with DSPC or DOPE, Balb/c mice): stable activity over a wide range of DOPE contents; Number-average particle diameter [2, 8]: 55.7 nm; PdI [2, 8]: 0.196; ζ-average [2, 8]: 82.1 nm; ζ-potential [2, 8]: −2.35 mV |
| CCCCC/C=C\C/C=C\CCCCCCCCOC1(OCCCCCCCC/C=C\C/C=C\CCCCC)CCN(C)CC1 [YSK05] |  |  |  |  |  |  |  |  |  |  | 0.06 |  |  |  |

Further lines, with some results ahead:

| Encapsulation rate [1, 3] [%] | Encapsulation rate [1, 4] [%] | Number-average particle diameter [2, 3] [nm] | PdI [2, 3] | ζ-average [2, 3] [nm] | ζ-potential [2, 3] [mV] | Number-average particle diameter [2, 4] [nm] | PdI [2, 4] | ζ-average [2, 4] [nm] | ζ-potential [2, 4] [mV] | Compound | ED50 in F7 knockdown (factor 7 (F7)) [mg siRNA/kg] | serum TTR activity / gene knockout versus CL4F6 (TTR gene) | Fluc activity (gene transfer ability) in liver and spleen (BALB/c mice) | other results |
| --- | --- | --- | --- | --- | --- | --- | --- | --- | --- | --- | --- | --- | --- | --- |
| 91.4 | 84.9 | 45.1 | 0.267 | 81.5 | −4.32 | 99.6 | 0.145 | 141.5 | −0.10 | 7-(4-(dipropylamino)butyl)-7-hydroxytridecane-1,13-diylbis(3-hexylnonanoate) [CL4F9-b-6] |  | lower serum TTR activity and higher gene knockout | equal to or greater than that of CL4F6 |  |
| 94.6 | 86.0 | 35.3 | 0.196 | 65.3 | −3.30 | 82.5 | 0.104 | 127.1 | −0.48 | 7-(4-(dipropylamino)butyl)-7-hydroxytridecane-1,13-diylbis(3-heptyldecanoate) [CL4F10-b-7] |  | lower serum TTR activity and higher gene knockout | equal to or greater than that of CL4F6 |  |
